According to PubChem BioAssay AID184 (DTP/NCI, 2004):
Values joined by “and” are separate entries in the source; they are usually repeats but may differ in a detail not shown here. Identical values can stand only once. Inconclusive results and toxic doses are left out. Starred links: 1 amine or outer side, 2 acyl side, 3 side chain; linkers in the order of their positions; H or OH if unused. Positions of bridges follow the written chain, without caps; N, C: chain ends. Non-standard residues stand in square brackets, D forms with d. Residues, ends and D or L forms follow the SMILES beside them. Chains are numbered I, II in the order given. Actinocin(9to1) = Cc1c2oc3c(C)ccc(C(=O)[*:1])c3nc-2c(C(=O)[*:2])c(N)c1=O; aThr = C[C@H](O)[C@H](N)C(=O)O; NMeV = CN[C@H](C(=O)O)C(C)C; Sar = CNCC(=O)O

System: BALB/cJ mice, ADJ-PC-6 ip tumor, median survival T/C
Assay: NCI In Vivo Anticancer Drug Screen. Data for tumor model ADJ-PC-6 (intraperitoneal) in BALB/cJ mice
Conditions: endpoint: median survival time, higher = longer survival
Experimental: The antitumor activity of compounds was measured in mice bearing transplantable tumors. Survival or tumor size were measured and the results are expressed as the measurement made in the treated group (T) divided by the measurement made in the vehicle treated control group (C). The tumor model used in this assay is ADJ-PC-6 (intraperitoneal) in BALB/cJ mice

[1] = dose: 7.5 mg/kg/injection, schedule: Q04DX003 (ip), vehicle: saline
[2] = dose: 15.0 mg/kg/injection, schedule: Q04DX003 (ip), vehicle: saline
[3] = dose: 30.0 mg/kg/injection, schedule: Q04DX003 (ip), vehicle: saline
[4] = dose: 60.0 mg/kg/injection, schedule: Q04DX003 (ip), vehicle: saline

With `S=c1nc[nH]c2nc[nH]c12` the T/C (dose: 10.0 mg/kg/injection, schedule: Q04DX003 (ip), vehicle: alkali diluted with saline) was 335 % of control, the T/C (dose: 20.0 mg/kg/injection, schedule: Q04DX003 (ip), vehicle: alkali diluted with saline) was 335 % of control and the T/C (dose: 25.0 mg/kg/injection, schedule: Q04DX003 (ip), vehicle: alkali diluted with saline) was 471 % of control. The T/C (dose: 40.0 mg/kg/injection, schedule: Q04DX003 (ip), vehicle: alkali diluted with saline) was 335 % of control, the T/C (dose: 50.0 mg/kg/injection, schedule: Q04DX003 (ip), vehicle: alkali diluted with saline) was 471 % of control and the T/C (dose: 80.0 mg/kg/injection, schedule: Q04DX003 (ip), vehicle: alkali diluted with saline) was 335 % of control. For the same compound, the T/C (dose: 100.0 mg/kg/injection, schedule: Q04DX003 (ip), vehicle: alkali diluted with saline) was 178 % of control and 471 % of control, the T/C (dose: 100.0 mg/kg/injection, schedule: Q04DX003 (ip), vehicle: alkali diluted with water) was 275 % of control and 283 % of control and the T/C (dose: 160.0 mg/kg/injection, schedule: Q04DX003 (ip), vehicle: alkali diluted with saline) was 335 % of control. The T/C (dose: 200.0 mg/kg/injection, schedule: Q04DX003 (ip), vehicle: alkali diluted with saline) was 93 % of control and the T/C (dose: 200.0 mg/kg/injection, schedule: Q04DX003 (ip), vehicle: alkali diluted with water) was 275 % of control and 369 % of control.
In the case of `COc1cc(NS(C)(=O)=O)ccc1Nc1c2ccccc2nc2ccccc12`, the T/C (dose: 5.0 mg/kg/injection, schedule: Q04DX003 (ip), vehicle: other) is reported as 161 % of control and the T/C (dose: 10.0 mg/kg/injection, schedule: Q04DX003 (ip), vehicle: other) is reported as 205 % of control.
In the case of `Cc1c2oc3c(C)ccc(C(=O)N[C@@H]4C(=O)N[C@H](C(C)C)C(=O)N5CCC[C@H]5C(=O)N(C)CC(=O)N(C)[C@@H](C(C)C)C(=O)O[C@H]4C)c3nc-2c(C(=O)N[C@@H]2C(=O)N[C@H](C(C)C)C(=O)N3CCC[C@H]3C(=O)N(C)CC(=O)N(C)[C@@H](C(C)C)C(=O)O[C@H]2C)c(N)c1=O` (I: [aThr][dV]P[Sar][NMeV] / II: [aThr][dV]P[Sar][NMeV]; ester I:1-I:C, II:1-II:C; linker I:N-II:N via Actinocin(9to1)), the T/C (dose: 0.04 mg/kg/injection, schedule: Q04DX003 (ip), vehicle: saline + alcohol) is reported as 115 % of control, the T/C (dose: 0.08 mg/kg/injection, schedule: Q04DX003 (ip), vehicle: saline + alcohol) is reported as 115 % of control and the T/C (dose: 0.3 mg/kg/injection, schedule: Q04DX003 (ip), vehicle: saline + alcohol) is reported as 156 % of control. For the same compound, the T/C (dose: 0.6 mg/kg/injection, schedule: Q04DX003 (ip), vehicle: saline + alcohol) was 189 % of control and 197 % of control, the T/C (dose: 37.5 micrograms/kg/injection, schedule: Q04DX003 (ip), vehicle: saline + alcohol) was 94 % of control and the T/C (dose: 75.0 micrograms/kg/injection, schedule: Q04DX003 (ip), vehicle: saline + alcohol) was 103 % of control. The T/C (dose: 150.0 micrograms/kg/injection, schedule: Q04DX003 (ip), vehicle: saline + alcohol) was 97 % of control and the T/C (dose: 300.0 micrograms/kg/injection, schedule: Q04DX003 (ip), vehicle: saline + alcohol) was 90 % of control.
For `CNc1nc(N(C)C)nc(N(C)C)n1`, the T/C (dose: 19.4 mg/kg/injection, schedule: Q01DX014 (ip), vehicle: saline) was 101 % of control, the T/C (dose: 19.4 mg/kg/injection, schedule: Q01DX014 (sc), vehicle: saline) was 100 % of control and 105 % of control and the T/C (dose: 32.4 mg/kg/injection, schedule: Q01DX014 (sc), vehicle: saline) was 152 % of control. The T/C (dose: 54.0 mg/kg/injection, schedule: Q01DX014 (ip), vehicle: saline) was 150 % of control, the T/C (dose: 54.0 mg/kg/injection, schedule: Q01DX014 (sc), vehicle: saline) was 208 % of control and the T/C (dose: 90.0 mg/kg/injection, schedule: Q01DX014 (ip), vehicle: saline) was 181 % of control and 297 % of control. For the same compound, the T/C (dose: 90.0 mg/kg/injection, schedule: Q01DX014 (sc), vehicle: saline) was 213 % of control and 243 % of control and the T/C (dose: 150.0 mg/kg/injection, schedule: Q01DX014 (ip), vehicle: saline) was 45 % of control.
With `CO[C@H]1C[C@@H]2CC[C@@H](C)[C@@](O)(O2)C(=O)C(=O)N2CCCC[C@H]2C(=O)O[C@H]([C@H](C)C[C@@H]2CC[C@@H](O)[C@H](OC)C2)CC(=O)[C@H](C)C=C(C)[C@@H](O)[C@@H](OC)C(=O)[C@H](C)C[C@H](C)/C=C/C=C/C=C1C` the T/C (dose: 7.5 mg/kg/injection, schedule: Q01DX009 (ip), vehicle: saline with Tween-80) was 113 % of control and 114 % of control, the T/C (dose: 15.0 mg/kg/injection, schedule: Q01DX009 (ip), vehicle: saline with Tween-80) was 116 % of control and the T/C (dose: 25.0 mg/kg/injection, schedule: Q01DX009 (ip), vehicle: saline) was 87 % of control. The T/C (dose: 30.0 mg/kg/injection, schedule: Q01DX009 (ip), vehicle: saline with Tween-80) was 114 % of control and 118 % of control, the T/C (dose: 50.0 mg/kg/injection, schedule: Q01DX009 (ip), vehicle: saline) was 98 % of control and the T/C (dose: 60.0 mg/kg/injection, schedule: Q01DX009 (ip), vehicle: saline with Tween-80) was 95 % of control and 110 % of control. For the same compound, the T/C (dose: 100.0 mg/kg/injection, schedule: Q01DX009 (ip), vehicle: saline) was 87 % of control, the T/C (dose: 120.0 mg/kg/injection, schedule: Q01DX009 (ip), vehicle: saline with Tween-80) was 87 % of control and the T/C (dose: 200.0 mg/kg/injection, schedule: Q01DX009 (ip), vehicle: saline) was 93 % of control.
For `CC[C@](O)(C(=O)O)c1cc2n(c(=O)c1CO)Cc1cc3ccccc3nc1-2`, the T/C (dose: 3.75 mg/kg/injection, schedule: Q04DX003 (ip), vehicle: saline) was 111 % of control, the T/C [1] was 120 % of control and the T/C (dose: 10.0 mg/kg/injection, schedule: Q04DX003 (ip), vehicle: saline) was 158 % of control. The T/C [2] was 115 % of control, the T/C (dose: 20.0 mg/kg/injection, schedule: Q04DX003 (ip), vehicle: saline) was 185 % of control and the T/C [3] was 158 % of control. For the same compound, the T/C (dose: 40.0 mg/kg/injection, schedule: Q04DX003 (ip), vehicle: saline) was 174 % of control, the T/C [4] was 188 % of control and the T/C (dose: 80.0 mg/kg/injection, schedule: Q04DX003 (ip), vehicle: saline) was 196 % of control.
`O=c1[nH]cc(F)c(=O)[nH]1` was tested, and the T/C [1] was 150 % of control and 471 % of control, the T/C [2] was 173 % of control and 308 % of control and the T/C [3] was 150 % of control and 273 % of control and 471 % of control. For the same compound, the T/C [4] was 193 % of control and 335 % of control and 471 % of control.
With `O=C(O)CCCc1ccc(N(CCCl)CCCl)cc1` the T/C (dose: 1.25 mg/kg/injection, schedule: Q04DX003 (ip), vehicle: saline with Tween-80) was 106 % of control, the T/C (dose: 2.0 mg/kg/injection, schedule: Q04DX003 (ip), vehicle: saline with Tween-80) was 102 % of control and the T/C (dose: 2.5 mg/kg/injection, schedule: Q04DX003 (ip), vehicle: saline with Tween-80) was 105 % of control. The T/C (dose: 4.0 mg/kg/injection, schedule: Q04DX003 (ip), vehicle: saline with Tween-80) was 102 % of control, the T/C (dose: 5.0 mg/kg/injection, schedule: Q04DX003 (ip), vehicle: saline with Tween-80) was 105 % of control and the T/C (dose: 8.0 mg/kg/injection, schedule: Q04DX003 (ip), vehicle: saline with Tween-80) was 122 % of control. The T/C (dose: 16.0 mg/kg/injection, schedule: Q04DX003 (ip), vehicle: saline with Tween-80) was 173 % of control, the T/C (dose: 20.0 mg/kg/injection, schedule: Q04DX003 (ip), vehicle: saline with Tween-80) was 260 % of control and the T/C (dose: 32.0 mg/kg/injection, schedule: Q04DX003 (ip), vehicle: saline with Tween-80) was 189 % of control.
With `CS(=O)(=O)c1ncc(Br)cn1` the T/C (dose: 25.0 mg/kg/injection, schedule: Q01DX009 (ip), vehicle: saline with Tween-80) was 105 % of control, the T/C (dose: 50.0 mg/kg/injection, schedule: Q01DX009 (ip), vehicle: saline with Tween-80) was 105 % of control and the T/C (dose: 100.0 mg/kg/injection, schedule: Q01DX009 (ip), vehicle: saline with Tween-80) was 118 % of control. For the same compound, the T/C (dose: 200.0 mg/kg/injection, schedule: Q01DX009 (ip), vehicle: saline with Tween-80) was 100 % of control.
`COc1cc2c(c(OC)c1OC)-c1ccc(OC)c(=O)cc1[C@@H](NC(C)=O)CC2` was tested, and the T/C (dose: 0.05 mg/kg/injection, schedule: Q01DX009 (ip), vehicle: Klucel (hydroxypropylcellulose) (HPC)) was 99 % of control, the T/C (dose: 0.1 mg/kg/injection, schedule: Q01DX009 (ip), vehicle: Klucel (hydroxypropylcellulose) (HPC)) was 88 % of control and the T/C (dose: 0.2 mg/kg/injection, schedule: Q01DX009 (ip), vehicle: Klucel (hydroxypropylcellulose) (HPC)) was 102 % of control. For the same compound, the T/C (dose: 0.4 mg/kg/injection, schedule: Q01DX009 (ip), vehicle: Klucel (hydroxypropylcellulose) (HPC)) was 108 % of control.
`CCN(CC)CCNc1ccc(C)c2sc3ccccc3c(=O)c12` was tested, and the T/C (dose: 12.5 mg/kg/injection, schedule: Q04DX003 (ip), vehicle: water) was 103 % of control, the T/C (dose: 50.0 mg/kg/injection, schedule: Q04DX003 (ip), vehicle: water) was 113 % of control and the T/C (dose: 100.0 mg/kg/injection, schedule: Q04DX003 (ip), vehicle: water) was 91 % of control.
